Assay results taken from US20070293458A1, “Prevention of nuclear, solar, and other radiation-induced tissue damage” (IP-6 Research Inc., priority 2006, published 2007).
Entries after “also recorded” stand apart in the source; their conditions may differ.

Legend:
Type in all cases: cell-based, human
HaCaT cells [1] = test: Cell cycle distribution by PI flow cytometry after UVB radiation
Description: (§1) HaCaT cells were plated in 60 mm tissue culture dishes for 24 hours. The cells were then either not exposed, or exposed, to 30 mJ/cm^2 UVB radiation and treated immediately with 0, 0.5 mM, or 1.0 mM IP-6. Cells were harvested 6 and 18 hours after UVB exposure. 5 μL of RNase (DNase-free) was added to 10^6 cells/mL. The cell suspension was incubated at 37° C. for 30 minutes. The suspension was then chilled on ice (2-8° C.). 100 μL of PI was added to the cell suspension (Cellular DNA flow cytometric analysis kit, Roche Diagnostics, Indianapolis, Ind.). DNA quantitation was performed on the same day by flow cytometry using FACS.

HaCaT cells [2] = test: MTT assay of cell viability and proliferation after UVB radiation
Description: The human keratinocyte (HaCaT) cells were grown in Dulbecco's Modified Eagle's Medium containing 7 mg/L of inositol (38.8 μM), supplemented with 10% heat-inactivated fetal bovine serum, 1% L-glutamine, and 1% antibiotic (penicillin, streptomycin). Cells were maintained at 37° C. and 5% CO2. Na-IP-6 was diluted from a 100 mM stock solution to the required concentrations (0.05-2.0 mM) using cell culture medium as the diluent. UVB intensities of 15, 30, 60 and 120 mJ/cm^2 were used, which was obtained by varying cell exposure time to UVB light (80% of light output is in 290-320 nm UVB range).
HaCaT cells were grown to approximately 80-90% confluency. 100 μL of 1×10^4 cells/mL HaCaT cells were seeded into each well of four 96-well plates. Cells were treated with IP-6 (0-2.0 mM), and on days 0, 1, 2, and 3, 100 μL of 1 mg/mL of aqueous MTT dissolved in DMEM media was added to each well and plates were placed into the incubator (37° C. and 5% CO2) for 4 hours. 150 μL of DMSO was then added to dissolve the formazan products. The absorbance was read at 540 nm using an EL Ultra Micro-plate Reader. Results were recorded as mean absorbance for each set of groups. […]
To determine if IP-6 protects HaCaT cells from UVB-induced injury, The MTT assay was performed as done above. […] Results were recorded as the mean absorbance for each set of groups.

HaCaT cells [3] = test: Annexin V and PI staining, flow cytometry (apoptotic, necrotic, viable cells) after UVB radiation; conditions: UVB-exposed
Description: as §1, with “FIG. 3. Effect of IP-6 and UVB radiation on cell cycle distribution of HaCaT cells. For annexin V and PI staining cells were either not exposed or exposed to 30 mJ/cm^2 UVB radiation, then either treated with 1.0 mM Na-IP-6 or not treated with IP-6. Eighteen hours later, cells were harvested and double stained with annexin V and PI and analyzed by flow cytometry. The number of cells that are present in apoptosis, necrosis or are viable are represented as percentages; p<0.001, as compared to the group exposed to UVB but not treated with IP-6. The concentration of inositol in the media is 38.8 μM. HaCaT” for “HaCaT”

HaCaT cells [4] = test: Cell attachment (crystal violet absorbance) after UVB radiation
Description: 5×10^4 HaCaT cells were seeded into each well of four 6-well tissue culture plates and incubated at 37° C. and 5% CO2 for 24 hours. One hour before UVB irradiation, two plates were treated with IP-6 (0 and 0.1 mM), one for IP-6 pre-treatment and the other for IP-6 pre-treatment and post-treatment. All four plates were then washed twice with PBS 1×, and a small amount of PBS 1× was added to the wells, which were irradiated at 30 mJ/cm^2. After UVB exposure, PBS was removed from the wells and DMEM media was added to each well. IP-6 (0.05 and 0.1 mM) was then added to the plates labeled no UVB exposure, IP-6 post-treatment, and pre-treatment and post-treatment. The cells were then incubated (37° C. and 5% CO2) for 18 hours. Following incubation, the cells were washed 4 times with PBS 1× (pH 7.4), then fixed with 4.0% formaldehyde for 15 minutes, and stained with 0.5% aqueous crystal violet for at least 5 minutes. Excess crystal violet was washed from the wells and the plates were left to dry. The dried crystal violet residue in each well was then dissolved in 500 μL of 30% acetic acid. The absorbance was read at 595 nm in triplicate in a 96-well plate using an EL Ultra Micro-plate Reader. Additionally, 5×10^4 HaCaT cells were plated into each well of ten 6-well plates as was done above. Before UVB irradiation, cells were washed twice with PBS 1×, and a small amount of PBS 1× was added to the wells. Cells were then exposed to no UVB, or 15, 30, 60, or 120 mJ/cm^2 intensities. Following exposure, cell media was added to the wells and cells were treated with IP-6 (0-2.0 mM). The cells were then incubated at 37° C. and 5% CO2. 18 hours after UVB exposure, cells were fixed with 4% formaldehyde, stained with 0.5% aqueous crystal violet and dissolved with 30% acetic acid as was done above. The absorbance was read in triplicate at 595 nm.

[5] = system: caspase-3 activation of HaCaT cells; test: Fluorometric CaspACE assay of activated caspase-3 activity
Description: FIG. 4. Effect of IP-6 and UVB radiation on caspase-3 activation of HaCaT cells. To assess activated caspase-3 activity, cells were either not exposed or exposed to 30 mJ/cm^2 UVB radiation, and then either treated with 1.0 mM Na-IP-6 or not treated with IP-6. Eighteen hours later, cells were harvested and fluorometric CaspACE assays were performed. Activated caspase-3 activity is represented as relative fluorescence units. **Significant at p<0.01, as compared to the group exposed to UVB but not treated with IP-6. The concentration of inositol in the media is 38.8 μM.
HaCaT cells were plated in 60 mm tissue culture dishes for 24 hours. The cells were either exposed to 30 mJ/cm^2 UVB radiation or not exposed. […] 10 μL of sample was then combined with caspase assay buffer (312.5 mM HEPES (pH 7.5), 31.25% sucrose, 0.3125% CHAPS (3-[(3-cholamido-propyl)-dimethyl ammonio]-1 propane-sulfonate, 2% DMSO, 10 mM DTT) containing 50 μM caspase-3 substrate, Ac-DEVD-AMC, in white 96 well microtiter plates. Negative control wells included 2 μL of 2.5 mM specific peptide inhibitor of caspase-3 (Ac-DEVD-CHO). The plate was incubated at 30° C. for 1 hour. The free reaction product, AMC was then measured using a fluorescent plate reader with an excitation wavelength of 360 nm and an emission wavelength of 460 nm. Caspase-3 activity was reported as relative fluorescent intensity of AMC.

[6] = 0.5 mM IP-6, vs UVB without IP-6
[7] = 0.5 and 1.0 mM IP-6, vs UVB without IP-6, p<0.001

O=P(O)(O)O[C@H]1[C@H](OP(=O)(O)O)[C@@H](OP(=O)(O)O)[C@H](OP(=O)(O)O)[C@@H](OP(=O)(O)O)[C@H]1OP(=O)(O)O [IP-6, inositol hexaphosphate]
G2M phase, 1.0 mM vs 0.5 mM treatment (HaCaT cells [1]; 18 hours after UVB 30 mJ/cm^2): comparable
effect on different phases of the cell cycle, 6 vs 18 hour (HaCaT cells [1]; UVB 30 mJ/cm^2, IP-6 0.5 or 1.0 mM): no time-dependent differences
cell viability and proliferation (MTT) (HaCaT cells [2]; UVB 15-120 mJ/cm^2, IP-6 0-2.0 mM added immediately after UVB, read 24 h later, p<0.001): increase in cell viability with increasing concentration of IP-6; also recorded: significant increase in relative cell viability with increasing IP-6 concentrations
cell viability (MTT), normal trend (HaCaT cells [2]; normal trend with higher IP-6 concentration (without the UVB effect)): decrease in cell viability with higher concentration of IP-6
percentage of apoptotic cells (HaCaT cells [3]; [6]): significant decrease
percentage of necrotic cells (HaCaT cells [3]; [6]): significant decrease
percentage of viable cells (HaCaT cells [3]; [6]): significant increase
apoptotic, necrotic and viable cells, effects relative to 0.5 mM (HaCaT cells [3]; 1.0 mM IP-6): much more pronounced
apoptotic cells, dose dependence (HaCaT cells [3]; [7]): dose-dependent decrease
necrotic cells, dose dependence (HaCaT cells [3]; [7]): dose-dependent decrease
viable cells (HaCaT cells [3]; [7]): increase in viable cells
cell attachment (HaCaT cells [4]; UVB 15 mJ/cm^2, 18 h, higher IP-6 concentrations (1.0 and 2.0 mM), vs non-IP-6 treated group): decrease in cell attachment
cell attachment (HaCaT cells [4]; UVB 15 mJ/cm^2, 18 h, lower IP-6 concentrations, vs non-IP-6 treated group): increase in cell attachment
cell attachment (HaCaT cells [4]; UVB 30 mJ/cm^2, 18 h, vs irradiated cells without IP-6, p<0.01 (FIG. 2: 0.5, 1.0 and 2.0 mM)): significant increase in HaCaT cell attachment with increasing concentrations of IP-6
cell attachment (HaCaT cells [4]; UVB 60 mJ/cm^2, 18 h, vs irradiated cells without IP-6): decrease in cell attachment
cell attachment (HaCaT cells [4]; UVB 120 mJ/cm^2, 18 h, vs irradiated cells without IP-6): decrease in cell attachment
activated caspase-3 activity ([5]; 1.0 mM IP-6, no UVB, 18 hours, vs control group): increase in activated caspase-3 activity
activated caspase-3 activity ([5]; UVB 30 mJ/cm^2 + 1.0 mM IP-6, 18 hours, vs UVB without IP-6, p<0.01): significantly lowered
